{"source": "patent US10716778B2", "about": "“Use of compounds that are able to increase the serum IGF-1 level for the preparation of a therapeutical composition for treatment of various disease states associated with a reduced IGF-1 serum level in humans and animals” (VEIJLEN N.V., priority 2003, dated 2020)", "key": {"poor-growing piglets": {"test_system": "poor-growing piglets", "experiment": "Weight gain and appearance of poor-growing piglets treated with IAA (Example 7)", "type": "in vivo, piglets (Dutch Landrace)", "excerpt": "The trial was done in a well-managed farm with 1000 sows of the Dutch Landrace. Although the farm is well run, the technical performance is not optimal. There were latent problems with mortality and with growth rates of the piglets. There are too many poor-growing piglets, without fully understanding the technical or veterinary reason. There is no clear pathology to be seen on the farm.\nThe farmer selected the poor-growing piglets for this weaning period. The piglets were weaned for two days at the start of the trial. There were three groups: the normal well-growing piglets, which served as a control group; the B group with 78 poor growers that are treated with 12.5 mg/kg/LW (Life Weight) IAA; and the X group with 52 poor growers that are not treated.\nBlood samples for IGF-1 measuring were taken from each group at the beginning of the trial and at the end of the trial. Two pens (13 piglets) of the B and X groups were weighed at the beginning and at the end of the trial. The active ingredient IAA was mixed in dextrose. […] The B group received the treatment five days after the first IGF-1 measuring."}, "IgF-BP3/IgF-1": {"test_system": "IgF-BP3/IgF-1", "experiment": "Ratio IgF-BP3/IgF-1 in type 2 diabetic patients during medication with IAA (Example 4)", "type": "in vivo, human", "details": "for Ratio IgF-BP3/IgF-1: acetic acid", "excerpt": "(§1) Five male type 2 diabetic patients took part in the study. They were all very difficult to regulate. When the study started, the average HbA1c was to be approximately 9.0%. The patients had no other clinical problems. In addition, the IgF-BP3/IgF-1 ratio had to be over 10. The age of the subjects were between 45 years and 75 years with an average of 58. The period of the investigation was 6 months. […] The following parameters were checked: IGF-1 and IGF-PB-3. Also, at the start, safety parameters (liver tests, hematology) were determined. Every 8 weeks, HbA1c was determined.\n(§2) All samples from one subject were analyzed in the same run to avoid intra-assay variability. Quantification of IGF-1 was performed using an immunoradiometric assay (IRMA) (DSL-5600 ACTIVE™, DSL, Germany GmbH, Germany). Intra- and inter-assay variance was: 4.0% and 9.2% and 1.5% for IGF-1. The Hba1c was analyzed on HPLC Menarine HA 81-60.\n(§3) The total work output of every subject was calculated with a 2-way ANOVA for repeated measures and the hormone values were analyzed with the Wilcoxon test. In all cases, a p value of <0.05 was accepted as significant."}, "IGF-1": {"test_system": "IGF-1", "experiment": "IgF-1 level in type 2 diabetic patients during medication with IAA (Example 4)", "type": "in vivo, human", "excerpt": "as §1, §2, §3"}}, "note": "“And” between values parts separate entries of the source, which are not always exact repeats. Equal values may be shown once.", "data": [{"substance": "indole acetic acid [IAA]", "values": [{"measurement": "appearance of piglets in group B versus group X", "setting": "poor-growing piglets; after one week", "result": "looking better"}, {"measurement": "weight of poor-growing animals", "setting": "poor-growing piglets; animal experiments, summary", "result": "increased to normal levels"}, {"measurement": "average extra weight gain of treated group over non-treated", "setting": "poor-growing piglets; pens that were weighed, period of 21 days", "result": "~0.5", "unit": "kg"}, {"measurement": "av. Weight gain", "setting": "poor-growing piglets; treated pens of group B, 21 days, acetic acid", "result": "7.02 kg and 6.08 kg"}, {"measurement": "Weighing 1 average", "setting": "poor-growing piglets; treated pens of group B, beginning of the trial, average per piglet, acetic acid", "result": "6.62 kg and 6.77 kg"}, {"measurement": "Weighing 1 Total", "setting": "poor-growing piglets; treated pens of group B, beginning of the trial, total per pen, acetic acid", "result": "86 (n = 13) kg and 88 (n = 13) kg"}, {"measurement": "Weighing 2 average", "setting": "poor-growing piglets; treated pens of group B, end of the trial, average per piglet, acetic acid", "result": "13.64 kg and 12.85 kg"}, {"measurement": "Weighing 2 Total", "setting": "poor-growing piglets; treated pens of group B, end of the trial, total per pen, acetic acid", "result": "150 (n = 11) kg and 167 (n = 13) kg"}, {"measurement": "average extra growth of pen B 3 L(eft) over neighbors from pen X 4 L(eft)", "setting": "poor-growing piglets; treated vs non-treated pen", "result": 850, "unit": "grams"}, {"measurement": "Ratio IgF-BP3/IgF-1, average", "setting": "IgF-BP3/IgF-1; Month 0 (start), average of 5 subjects", "result": 10.6}, {"measurement": "Ratio IgF-BP3/IgF-1", "setting": "IgF-BP3/IgF-1; Month 0 (start), individual subjects", "result": "10.2 and 10.6 and 10.8 and 11.3 and 10.0"}, {"measurement": "Ratio IgF-BP3/IgF-1, average", "setting": "IgF-BP3/IgF-1; Month 1, average of 5 subjects", "result": 9.9}, {"measurement": "Ratio IgF-BP3/IgF-1", "setting": "IgF-BP3/IgF-1; Month 1, individual subjects", "result": "9.7 and 10.1 and 9.9 and 10.8 and 8.9"}, {"measurement": "Ratio IgF-BP3/IgF-1, average", "setting": "IgF-BP3/IgF-1; Month 2, average of 5 subjects", "result": 8.9}, {"measurement": "Ratio IgF-BP3/IgF-1", "setting": "IgF-BP3/IgF-1; Month 2, individual subjects", "result": "9.0 and 8.6 and 9.4 and 9.2 and 8.5"}, {"measurement": "Ratio IgF-BP3/IgF-1, average", "setting": "IgF-BP3/IgF-1; Month 3, average of 5 subjects", "result": 8.5}, {"measurement": "Ratio IgF-BP3/IgF-1", "setting": "IgF-BP3/IgF-1; Month 3, individual subjects", "result": "8.6 and 8.3 and 8.9 and 8.8 and 8.1"}, {"measurement": "Ratio IgF-BP3/IgF-1, average", "setting": "IgF-BP3/IgF-1; Month 4, average of 5 subjects", "result": 7.9}, {"measurement": "Ratio IgF-BP3/IgF-1", "setting": "IgF-BP3/IgF-1; Month 4, individual subjects", "result": "8.0 and 7.6 (2×) and 8.3 and 7.8"}, {"measurement": "Ratio IgF-BP3/IgF-1, average", "setting": "IgF-BP3/IgF-1; Month 5, average of 5 subjects", "result": 7.2}, {"measurement": "Ratio IgF-BP3/IgF-1", "setting": "IgF-BP3/IgF-1; Month 5, individual subjects", "result": "7.2 (2×) and 6.8 and 7.6 and 7.3"}, {"measurement": "Ratio IgF-BP3/IgF-1, average", "setting": "IgF-BP3/IgF-1; Month 6, average of 5 subjects", "result": 6.8}, {"measurement": "Ratio IgF-BP3/IgF-1", "setting": "IgF-BP3/IgF-1; Month 6, individual subjects", "result": "6.6 and 6.3 and 7.2 and 6.9 (2×)"}, {"measurement": "IgF-1 level, average", "setting": "IGF-1; Month 0 (start), average of 5 subjects, acetic acid", "result": "10.8 nmol/L and 10.7 nmol/L"}, {"measurement": "IgF-1 level", "setting": "IGF-1; Month 0 (start), individual subjects, acetic acid", "result": "11.1 nmol/L and 9.6 nmol/L and 10.4 nmol/L and 11.2 nmol/L and 11.3 nmol/L"}, {"measurement": "IgF-1 level, average", "setting": "IGF-1; Month 1, average of 5 subjects", "result": 11.4, "unit": "nmol/L"}, {"measurement": "IgF-1 level", "setting": "IGF-1; Month 1, individual subjects, acetic acid", "result": "12.5 nmol/L and 10.1 nmol/L and 10.8 nmol/L and 11.6 nmol/L and 12.0 nmol/L"}, {"measurement": "IgF-1 level, average", "setting": "IGF-1; Month 2, average of 5 subjects", "result": 12.0, "unit": "nmol/L"}, {"measurement": "IgF-1 level", "setting": "IGF-1; Month 2, individual subjects, acetic acid", "result": "13.1 nmol/L and 10.6 nmol/L and 11.6 nmol/L and 11.9 nmol/L and 12.6 nmol/L"}, {"measurement": "IgF-1 level, average", "setting": "IGF-1; Month 3, average of 5 subjects", "result": 12.5, "unit": "nmol/L"}, {"measurement": "IgF-1 level", "setting": "IGF-1; Month 3, individual subjects, acetic acid", "result": "13.8 nmol/L and 11.1 nmol/L and 12.1 nmol/L and 12.3 nmol/L and 13.0 nmol/L"}, {"measurement": "IgF-1 level, average", "setting": "IGF-1; Month 4, average of 5 subjects", "result": 13.0, "unit": "nmol/L"}, {"measurement": "IgF-1 level", "setting": "IGF-1; Month 4, individual subjects, acetic acid", "result": "14.3 nmol/L and 11.8 nmol/L and 12.6 nmol/L and 12.8 nmol/L and 13.5 nmol/L"}, {"measurement": "IgF-1 level, average", "setting": "IGF-1; Month 5, average of 5 subjects", "result": 13.5, "unit": "nmol/L"}, {"measurement": "IgF-1 level", "setting": "IGF-1; Month 5, individual subjects, acetic acid", "result": "14.9 nmol/l and 12.1 nmol/l and 13.3 nmol/l (2×) and 13.9 nmol/l"}, {"measurement": "IgF-1 level, average", "setting": "IGF-1; Month 6, average of 5 subjects", "result": 14.1, "unit": "nmol/L"}, {"measurement": "IgF-1 level", "setting": "IGF-1; Month 6, individual subjects, acetic acid", "result": "15.2 nmol/L and 12.9 nmol/L and 13.9 nmol/L and 14.4 nmol/L and 14.3 nmol/L"}]}]}
